The target in experiment [1] is Phosphatidylethanolamine-binding protein 1 (Homo sapiens, UniProt P30086).
Experiment [2] has as its target T1, Tyrosine-protein kinase Mer (Homo sapiens, UniProt Q12866).
T1 sequence (Q12866 whole entry): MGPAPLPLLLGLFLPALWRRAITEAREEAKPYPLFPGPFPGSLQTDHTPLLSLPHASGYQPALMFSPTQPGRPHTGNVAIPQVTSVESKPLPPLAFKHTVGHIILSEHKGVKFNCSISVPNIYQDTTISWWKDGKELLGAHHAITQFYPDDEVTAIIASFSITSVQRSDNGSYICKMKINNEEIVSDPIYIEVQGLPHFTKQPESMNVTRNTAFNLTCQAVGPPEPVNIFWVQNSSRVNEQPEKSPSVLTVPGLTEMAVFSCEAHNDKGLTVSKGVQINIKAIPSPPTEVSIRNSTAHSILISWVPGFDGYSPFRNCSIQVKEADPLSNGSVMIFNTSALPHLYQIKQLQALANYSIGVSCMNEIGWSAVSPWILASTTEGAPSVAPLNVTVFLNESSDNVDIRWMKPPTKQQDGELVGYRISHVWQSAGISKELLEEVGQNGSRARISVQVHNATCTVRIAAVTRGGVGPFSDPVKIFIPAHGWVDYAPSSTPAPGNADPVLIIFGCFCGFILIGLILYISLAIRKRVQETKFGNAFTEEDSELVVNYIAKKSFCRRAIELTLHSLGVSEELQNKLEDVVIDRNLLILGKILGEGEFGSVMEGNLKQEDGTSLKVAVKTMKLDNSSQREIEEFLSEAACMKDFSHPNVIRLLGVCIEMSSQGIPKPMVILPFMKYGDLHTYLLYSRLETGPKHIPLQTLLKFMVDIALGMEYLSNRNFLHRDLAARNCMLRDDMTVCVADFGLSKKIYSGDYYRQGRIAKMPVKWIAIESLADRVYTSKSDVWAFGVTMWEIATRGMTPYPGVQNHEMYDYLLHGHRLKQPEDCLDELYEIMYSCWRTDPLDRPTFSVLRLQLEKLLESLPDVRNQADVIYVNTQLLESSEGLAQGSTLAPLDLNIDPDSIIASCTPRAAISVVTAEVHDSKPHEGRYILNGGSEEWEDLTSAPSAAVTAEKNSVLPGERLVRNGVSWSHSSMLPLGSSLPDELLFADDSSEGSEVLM

The next experiment has as its target Misshapen-like kinase 1 (Homo sapiens, UniProt Q8N4C8).
Experiment [3] concerns the target T2, Thyroid hormone receptor-associated protein 3 (Homo sapiens, UniProt Q9Y2W1).
T2 sequence (Q9Y2W1 whole entry): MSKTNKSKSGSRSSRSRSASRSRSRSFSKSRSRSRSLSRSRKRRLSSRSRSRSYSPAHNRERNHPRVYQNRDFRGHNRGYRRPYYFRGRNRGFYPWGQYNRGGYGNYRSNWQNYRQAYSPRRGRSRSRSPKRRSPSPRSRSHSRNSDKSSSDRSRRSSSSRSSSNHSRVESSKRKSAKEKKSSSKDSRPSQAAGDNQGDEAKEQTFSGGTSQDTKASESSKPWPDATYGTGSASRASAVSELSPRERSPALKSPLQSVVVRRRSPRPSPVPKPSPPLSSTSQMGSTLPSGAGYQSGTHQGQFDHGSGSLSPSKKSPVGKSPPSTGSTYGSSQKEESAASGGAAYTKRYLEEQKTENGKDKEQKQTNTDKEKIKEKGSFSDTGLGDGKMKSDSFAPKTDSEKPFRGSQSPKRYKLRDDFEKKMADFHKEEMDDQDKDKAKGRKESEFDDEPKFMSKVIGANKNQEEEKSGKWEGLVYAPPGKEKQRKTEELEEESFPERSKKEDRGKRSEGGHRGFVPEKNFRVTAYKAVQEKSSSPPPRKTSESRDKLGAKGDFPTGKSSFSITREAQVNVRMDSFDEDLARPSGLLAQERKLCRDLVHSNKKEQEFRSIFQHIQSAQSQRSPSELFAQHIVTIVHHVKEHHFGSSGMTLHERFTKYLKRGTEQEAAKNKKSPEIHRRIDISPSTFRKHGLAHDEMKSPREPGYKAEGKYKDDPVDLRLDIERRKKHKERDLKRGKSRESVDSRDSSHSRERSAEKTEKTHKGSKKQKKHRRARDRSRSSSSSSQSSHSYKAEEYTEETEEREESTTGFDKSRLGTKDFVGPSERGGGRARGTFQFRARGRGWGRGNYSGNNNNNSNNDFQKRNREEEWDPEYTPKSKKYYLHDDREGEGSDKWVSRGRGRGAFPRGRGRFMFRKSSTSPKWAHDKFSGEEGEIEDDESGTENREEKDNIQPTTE

Another experiment concerns the target T3, UMP-CMP kinase (Homo sapiens, UniProt P30085).
T3 sequence (P30085 whole entry): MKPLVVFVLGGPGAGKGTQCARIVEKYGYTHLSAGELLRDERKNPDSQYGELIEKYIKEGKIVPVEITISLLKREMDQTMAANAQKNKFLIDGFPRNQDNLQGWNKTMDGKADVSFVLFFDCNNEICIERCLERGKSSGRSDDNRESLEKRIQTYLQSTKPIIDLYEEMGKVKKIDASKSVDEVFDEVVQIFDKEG

In experiment [4] the target is Serine/threonine-protein kinase 38-like (Homo sapiens, UniProt Q9Y2H1).
Sequence of Serine/threonine-protein kinase 38-like (Q9Y2H1 whole entry): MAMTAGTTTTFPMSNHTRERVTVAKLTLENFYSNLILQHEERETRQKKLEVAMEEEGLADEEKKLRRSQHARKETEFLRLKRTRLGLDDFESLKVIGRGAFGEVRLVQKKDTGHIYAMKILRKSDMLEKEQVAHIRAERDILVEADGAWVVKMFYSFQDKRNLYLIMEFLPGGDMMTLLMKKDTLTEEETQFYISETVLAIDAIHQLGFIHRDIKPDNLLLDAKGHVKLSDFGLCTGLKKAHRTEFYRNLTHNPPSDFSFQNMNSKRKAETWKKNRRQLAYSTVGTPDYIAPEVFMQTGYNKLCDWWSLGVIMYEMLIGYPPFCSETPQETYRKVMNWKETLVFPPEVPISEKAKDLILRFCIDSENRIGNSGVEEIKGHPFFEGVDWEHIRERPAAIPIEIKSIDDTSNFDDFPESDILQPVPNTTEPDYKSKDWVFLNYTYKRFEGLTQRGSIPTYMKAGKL
In experiment [5] the target is Serine/threonine-protein kinase pim-2 (Homo sapiens, UniProt Q9P1W9).
Sequence of Serine/threonine-protein kinase pim-2 (Q9P1W9 whole entry): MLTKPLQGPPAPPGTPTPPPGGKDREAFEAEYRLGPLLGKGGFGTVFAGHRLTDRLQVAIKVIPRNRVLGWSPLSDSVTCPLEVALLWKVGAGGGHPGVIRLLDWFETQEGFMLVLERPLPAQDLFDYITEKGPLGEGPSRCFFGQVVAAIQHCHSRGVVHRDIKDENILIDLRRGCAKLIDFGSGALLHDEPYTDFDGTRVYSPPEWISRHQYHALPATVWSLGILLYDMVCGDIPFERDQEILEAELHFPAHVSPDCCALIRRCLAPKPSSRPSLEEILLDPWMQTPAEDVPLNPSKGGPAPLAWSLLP
Experiment [6] concerns the target Cyclin-dependent kinase 10 (Homo sapiens, UniProt Q15131).
The target of experiment [7] is Serine/threonine-protein kinase PLK1 (Homo sapiens, UniProt P53350).
Sequence of Serine/threonine-protein kinase PLK1 (P53350 whole entry): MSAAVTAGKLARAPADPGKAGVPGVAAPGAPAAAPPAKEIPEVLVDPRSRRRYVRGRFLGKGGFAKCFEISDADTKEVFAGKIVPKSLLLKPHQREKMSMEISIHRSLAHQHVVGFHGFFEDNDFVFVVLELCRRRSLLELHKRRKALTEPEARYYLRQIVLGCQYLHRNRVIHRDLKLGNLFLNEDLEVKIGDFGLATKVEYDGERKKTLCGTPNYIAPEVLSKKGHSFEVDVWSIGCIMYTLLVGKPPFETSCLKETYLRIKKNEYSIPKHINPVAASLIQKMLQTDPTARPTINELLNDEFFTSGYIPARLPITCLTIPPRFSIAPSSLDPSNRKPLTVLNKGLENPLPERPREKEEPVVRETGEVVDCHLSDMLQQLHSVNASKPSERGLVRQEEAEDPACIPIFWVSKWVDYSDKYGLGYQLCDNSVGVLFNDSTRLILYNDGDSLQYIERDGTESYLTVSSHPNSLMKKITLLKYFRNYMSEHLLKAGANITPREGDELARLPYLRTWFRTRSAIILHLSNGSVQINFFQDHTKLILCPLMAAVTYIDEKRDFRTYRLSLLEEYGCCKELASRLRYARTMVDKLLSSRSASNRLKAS

Calls of active or inactive are those of the source. On the calls: in the data inactive means no Kd found up to 30 µM.

Sequence of Phosphatidylethanolamine-binding protein 1 (P30086 whole entry): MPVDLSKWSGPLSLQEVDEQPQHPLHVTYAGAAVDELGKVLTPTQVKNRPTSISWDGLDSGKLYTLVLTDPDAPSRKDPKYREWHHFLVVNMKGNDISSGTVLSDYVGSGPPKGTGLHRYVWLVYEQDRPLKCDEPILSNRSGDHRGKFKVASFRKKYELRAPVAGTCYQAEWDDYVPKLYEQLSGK
Sequence of Misshapen-like kinase 1 (Q8N4C8 whole entry): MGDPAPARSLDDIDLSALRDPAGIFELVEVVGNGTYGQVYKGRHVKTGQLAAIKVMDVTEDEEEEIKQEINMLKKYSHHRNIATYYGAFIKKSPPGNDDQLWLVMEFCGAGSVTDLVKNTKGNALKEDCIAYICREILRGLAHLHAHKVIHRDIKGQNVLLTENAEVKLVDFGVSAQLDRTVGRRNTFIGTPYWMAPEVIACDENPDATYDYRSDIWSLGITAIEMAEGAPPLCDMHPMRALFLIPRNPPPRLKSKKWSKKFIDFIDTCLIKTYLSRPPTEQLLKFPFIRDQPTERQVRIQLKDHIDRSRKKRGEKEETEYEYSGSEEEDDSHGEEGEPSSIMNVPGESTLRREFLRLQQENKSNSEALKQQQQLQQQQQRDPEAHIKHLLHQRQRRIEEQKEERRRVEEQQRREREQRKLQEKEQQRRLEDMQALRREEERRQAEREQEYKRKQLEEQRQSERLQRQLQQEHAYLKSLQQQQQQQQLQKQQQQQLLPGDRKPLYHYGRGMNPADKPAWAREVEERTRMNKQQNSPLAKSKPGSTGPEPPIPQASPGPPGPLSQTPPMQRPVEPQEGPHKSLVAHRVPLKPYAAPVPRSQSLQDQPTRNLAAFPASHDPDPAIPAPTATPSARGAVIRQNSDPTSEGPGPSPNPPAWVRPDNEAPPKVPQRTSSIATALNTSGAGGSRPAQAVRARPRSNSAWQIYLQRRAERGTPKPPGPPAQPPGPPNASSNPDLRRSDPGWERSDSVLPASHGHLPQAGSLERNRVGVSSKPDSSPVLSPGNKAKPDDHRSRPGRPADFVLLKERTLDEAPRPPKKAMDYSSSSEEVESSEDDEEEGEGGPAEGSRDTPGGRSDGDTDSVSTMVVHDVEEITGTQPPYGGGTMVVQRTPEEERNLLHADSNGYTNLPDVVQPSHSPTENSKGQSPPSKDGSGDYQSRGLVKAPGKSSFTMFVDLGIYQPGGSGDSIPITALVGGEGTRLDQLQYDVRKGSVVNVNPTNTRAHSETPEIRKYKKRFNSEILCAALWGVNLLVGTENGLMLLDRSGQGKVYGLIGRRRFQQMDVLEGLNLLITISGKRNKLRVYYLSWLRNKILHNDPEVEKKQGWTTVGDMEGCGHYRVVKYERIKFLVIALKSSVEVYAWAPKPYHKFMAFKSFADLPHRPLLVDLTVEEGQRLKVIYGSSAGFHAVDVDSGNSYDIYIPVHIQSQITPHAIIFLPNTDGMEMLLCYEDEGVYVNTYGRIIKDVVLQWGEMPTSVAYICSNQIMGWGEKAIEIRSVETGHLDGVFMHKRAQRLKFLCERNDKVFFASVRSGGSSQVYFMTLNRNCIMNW
Sequence of Cyclin-dependent kinase 10 (Q15131 whole entry): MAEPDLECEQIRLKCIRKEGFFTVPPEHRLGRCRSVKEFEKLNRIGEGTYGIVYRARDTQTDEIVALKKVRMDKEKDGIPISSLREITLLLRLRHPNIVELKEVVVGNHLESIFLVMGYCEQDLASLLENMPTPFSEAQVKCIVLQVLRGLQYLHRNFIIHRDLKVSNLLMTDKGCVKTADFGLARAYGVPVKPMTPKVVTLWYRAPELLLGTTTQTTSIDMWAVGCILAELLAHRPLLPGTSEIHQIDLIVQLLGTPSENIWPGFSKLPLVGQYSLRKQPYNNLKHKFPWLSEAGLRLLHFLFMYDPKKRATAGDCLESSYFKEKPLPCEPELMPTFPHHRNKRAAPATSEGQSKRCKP

Broadly, the Kd is a measure of binding affinity in units of concentration. Turning to `CCN(CCCOc1ccc2c(Nc3cc(CC(=O)Nc4cccc(F)c4)n[nH]3)ncnc2c1)CCOP(=O)(O)O` [BARASERTIB], the Kd (in experiment [1]; in experiment [2]; on Misshapen-like kinase 1; in [3]) was > 30 µM (inactive) each time.

In the case of `COc1cc2ncnc(Nc3ccc(F)c(Cl)c3)c2cc1NC(=O)/C=C/CN1CCCCC1` [DACOMITINIB ANHYDROUS], the Kd (in [1]; on UMP-CMP kinase; in [4]; in experiment [5]; in experiment [3]) was > 30 µM (inactive) in each case.

As for `COCCN1CCN(Cc2ccc(-c3n[nH]c4c3C(=O)c3c(NC(=O)NN5CCOCC5)cccc3-4)cc2)CC1` [RGB-286638], the Kd in experiment [1] was > 30 µM (inactive); in [2], > 30 µM (inactive); at UMP-CMP kinase, > 30 µM (inactive); in [5] it was 0.042 µM (active); in experiment [3], > 30 µM (inactive).

`C=CCN(/C=C1/C(=O)O[C@H](COC)[C@@]2(C)C1=C(O)C(=O)C1=C2[C@H](OC(C)=O)C[C@]2(C)C(=O)CC[C@@H]12)CC=C` [SONOLISIB]: the Kd in experiment [3] is > 30 µM (inactive).

For `COc1cc2c(N3CCN(C(=O)Nc4ccc(OC(C)C)cc4)CC3)ncnc2cc1OCCCN1CCCCC1` [TANDUTINIB], the Kd in experiment [3] was > 30 µM (inactive).

For `COc1cc2c(Oc3ccc4[nH]c(C)cc4c3F)ncnc2cc1OCCCN1CCCC1` [CEDIRANIB], the Kd (in experiment [1]; at UMP-CMP kinase) was > 30 µM (inactive) in each case.

Turning to `CCN1CCN(Cc2ccc(Nc3ncc(F)c(-c4cc(F)c5nc(C)n(C(C)C)c5c4)n3)nc2)CC1` [ABEMACICLIB], the Kd in [3] was > 30 µM (inactive).

As to `Cn1cnc2c(F)c(Nc3ccc(Br)cc3Cl)c(C(=O)NOCCO)cc21` [SELUMETINIB], the Kd (in experiment [1]; on UMP-CMP kinase; in experiment [3]) was > 30 µM (inactive) throughout.

With `CNC(=O)c1ccc(Nc2ncc(C(F)(F)F)c(NCc3nccnc3N(C)S(C)(=O)=O)n2)cc1` [DEFACTINIB], the Kd in experiment [5] and in [3] was > 30 µM (inactive) in each case.

Turning to `Cc1c(Cn2c(C)nc3c(C(=O)O)cc(N4CCOCC4)cc32)cccc1C(F)(F)F` [GSK-2636771], the Kd (at UMP-CMP kinase; in [3]; in experiment [6]) was > 30 µM (inactive) in each case.

As for `Cc1cc(C(=O)Nc2cc(Oc3ccc4nc(NC(=O)C5CC5)cn4n3)ccc2C)n(C)n1` [TAK-593], the Kd in [7] and in experiment [5] was > 30 µM (inactive) throughout.

`CCOc1ccn(-c2ccc(F)cc2)c(=O)c1C(=O)Nc1ccc(Oc2ccnc(N)c2Cl)c(F)c1` [BMS-777607]: the Kd (in experiment [1]; on Misshapen-like kinase 1; in experiment [4]) was > 30 µM (inactive) each time.

For the molecule `FC(F)(F)c1ccc(CNc2ccc(Cc3c[nH]c4ncc(Cl)cc34)cn2)cn1` [PEXIDARTINIB], the Kd in experiment [2], in [4] and in [5] was > 30 µM (inactive) in each case.

As for `Cc1cc(-c2cc(OC(=O)c3ccccc3)ccc2Cl)cc2nnc(Nc3ccc(OCCN4CCCC4)cc3)nc12` [TG100-801], the Kd in [4], in [5], in experiment [3] and in experiment [6] was > 30 µM (inactive) in each case.

Regarding `CN(c1ncccc1CNc1nc(Nc2ccc3c(c2)CC(=O)N3)ncc1C(F)(F)F)S(C)(=O)=O` [PF-00562271], the Kd (in [1]; on UMP-CMP kinase; in experiment [6]) was > 30 µM (inactive) in each case.

`c1cc(OCCN2CCCCC2)cc(-c2n[nH]c3ccc(-c4nc[nH]n4)cc23)c1` [CC-401]: the Kd in experiment [1], in experiment [2], in experiment [4], in experiment [5] and in [3] was > 30 µM (inactive) throughout.

For the molecule `CNC(=O)c1cc(COc2nnc(Nc3ccc(Cl)cc3)c3ccoc23)ccn1` [TELATINIB], the Kd (in [1]; at Misshapen-like kinase 1; in [5]; in experiment [6]) was > 30 µM (inactive) throughout.

`COc1cccc(Nc2ncnn3ccc(CN4CC[C@@H](N)[C@H](O)C4)c23)c1` [BMS-690514]: the Kd in experiment [1] and in [4] was > 30 µM (inactive) throughout.

With `C[C@@]1(C(=O)Nc2ccc(F)nc2)CCCN1c1nc(Nc2cc(C3CC3)n[nH]2)c2cccn2n1` [BMS-754807], the Kd in experiment [1] and in [3] was > 30 µM (inactive) throughout.

On to `C=CC(=O)Nc1cccc(Nc2nc(Nc3ccc(N4CCN(C(C)=O)CC4)cc3OC)ncc2C(F)(F)F)c1` [ROCILETINIB], for which the Kd in [1] and in experiment [5] was > 30 µM (inactive) each time.

For `COc1cc(Nc2ncc(F)c(Nc3ccc4c(n3)N(COP(=O)(O)O)C(=O)C(C)(C)O4)n2)cc(OC)c1OC` [FOSTAMATINIB], the Kd (in experiment [1]; at UMP-CMP kinase; in experiment [7]; in [4]) was > 30 µM (inactive) in each case.

Consider `N#CCNC(=O)c1ccc(-c2ccnc(Nc3ccc(N4CCOCC4)cc3)n2)cc1` [MOMELOTINIB], for which the Kd (in experiment [1]; on UMP-CMP kinase; in [5]) was > 30 µM (inactive) in each case.

Turning to `O=C(O)c1ccc2c(c1)nc(Nc1cccc(Cl)c1)c1ccncc12` [SILMITASERTIB], the Kd on Misshapen-like kinase 1 was > 30 µM (inactive); in experiment [7], 0.672 µM (active); in [4], > 30 µM (inactive); in experiment [3], > 30 µM (inactive).

`Cc1c(NC(=O)OC[C@@H]2COCCN2)cn2ncnc(Nc3ccc4c(cnn4Cc4cccc(F)c4)c3)c12` [AC-480]: the Kd in experiment [1], in experiment [7], in experiment [5] and in experiment [3] was > 30 µM (inactive) each time.

With `O[C@H]1CC[C@H](Nc2ncc3nc(Nc4c(F)cc(F)cc4F)n([C@H]4CCOC4)c3n2)CC1` [TANZISERTIB], the Kd (in experiment [1]; in experiment [2]; on Misshapen-like kinase 1; in experiment [4]; in experiment [5]; in experiment [3]) was > 30 µM (inactive) each time.

(Values after ChEMBL document CHEMBL3991601, “The target landscape of clinical kinase drugs” (Science, 2017).)
